This note sets out measurements from ChEMBL document CHEMBL1138660, “Contribution of ionization and lipophilicity to drug binding to albumin: a preliminary step toward biodistribution prediction” (J Med Chem, 2004).

Each structure is given as a SMILES string.

The nature of data set [1]: physchem. As to conditions: buffer, pH 7.4.
Description: Distribution coeeficient for the compound at pH7.4 (Log D7.4)
The conditions of data set [2]: human, plasma.
Data set [3] can be described thus: physchem.
Description: pKa value of the compound

The logD is lipophilicity at a set pH, counting ionised and neutral species. As a reminder, the pKa is the negative logarithm of the acid dissociation constant. A high value points to a weaker acid or stronger base.

As for `CN(Cc1cnc2nc(N)nc(N)c2n1)c1ccc(C(=O)N[C@@H](CCC(=O)O)C(=O)O)cc1` [METHOTREXATE], the logD in the data set “physchem [1]” was -2.52. Also, the “B(DPB)” value in data set [2] is 49.9%.
`NS(=O)(=O)c1cc(C(=O)O)c(NCc2ccco2)cc1Cl` [FUROSEMIDE]: the “B(DPB)” value in data set [2] was 87.2%.
Same read-out and setting: for `CCCC(=O)Nc1ccc(OCC(O)CNC(C)C)c(C(C)=O)c1` (centres undefined) [ACEBUTOLOL] the value was 0%.
Turning to `CN1C(C(=O)Nc2ccccn2)=C(O)c2sccc2S1(=O)=O` [TENOXICAM], in “physchem [1]”, the logD is -0.32. Besides, the pKa in “physchem [3]” was 4.95. For the same molecule, the “B(DPB)” value in data set [2] is given as 89.6%.
Consider `COC(=O)C1=C(C)NC(C)=C(C(=O)OCCN(C)Cc2ccccc2)C1c1cccc([N+](=O)[O-])c1` (centres undefined) [NICARDIPINE], for which, in the data set “physchem [1]”, the logD was determined as 4.25. The same molecule came in with a pKa in the data set “physchem [3]” of 7.17. Also, the “B(DPB)” value in data set [2] is on record as 93.4%.
Take `COc1ccc2cc([C@H](C)C(=O)O)ccc2c1` [NAPROXEN]: the “B(DPB)” value in data set [2] is more than 95%.
Molecule `CNC(=C[N+](=O)[O-])NCCSCc1ccc(CN(C)C)o1` [RANITIDINE] had a logD in the data set “physchem [1]” of -0.48. The pKa in “physchem [3]” turned out to be 8.48. In data set [2], the “B(DPB)” value stood at 3.9%.
